Among the data in PubChem BioAssay (NCI) are TGI values, retold here.

Test in all cases: NCI-60 cell line screen, 48 h
In experiment [1] the test system is HT29 colon.
The test system of experiment [2] is HOP-92 NSCLC.
For experiment [3], the system named is ACHN renal.
For experiment [4], the system named is EKVX NSCLC.
Experiment [5] has as its system HCT-15 colon.
The test system of experiment [6] is IGROV1 ovarian.
Experiment [7] relates to HS 578T breast.
Experiment [8] concerns UACC-257 melanoma.
Experiment [9] concerns T-47D breast.

SMILES strings stand for the structures.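 Step 1: Grow cells in 96-well plates. Step 2: Expose to compound for 48 hours at 5 concentrations. Step 3: Interpolate endpoints linearly; if unreached, use highest concentration. TGI: total growth inhibition.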

As for `CN=C1C=C(/N=C2/C=C(N/C(=C\C#N)C(C)(C)O)OC2(C)C)OC1(C)C`, the TGI was above 100 µM in experiment [1]; above 71.5 µM in [2]; above 100 µM in [3]; above 100 µM in [4]; above 100 µM in experiment [5]; above 72.5 µM in experiment [6]. The TGI in experiment [7], in [8] and in experiment [9] was above 100 µM in each case.

On to `N=C(N)c1ccc(N=Nc2c(O)c(C(=O)Nc3ccccc3)cc3ccccc23)cc1`, for which the TGI in experiment [1] was 42.4 µM; in experiment [2], 33.8 µM; in experiment [3], above 53.6 µM; in experiment [4] it was 41.9 µM; in [5], above 48.8 µM; in experiment [6] it was above 74.6 µM. Also, the results for the TGI in experiment [7], in experiment [8] and in experiment [9] were above 85.5 µM, above 100 µM and 38.2 µM, respectively.

`CN(C)c1ccc(/C=C2\N=C(c3ccccc3)N(c3nc4ccc(Sc5ccccc5)cc4[nH]3)C2=O)cc1`: the TGI in experiment [1], in experiment [2], in [3], in experiment [4], in [5] and in experiment [6] was above 100 µM throughout. The TGI in [7] was above 100 µM; in experiment [8], 90.9 µM; in [9], above 100 µM.

For `COc1ccccc1-c1cc(=O)c2cccnc2[nH]1`, the TGI is above 100 µM in experiment [1]; 60.2 µM in experiment [2]; above 100 µM in experiment [3]; above 100 µM in experiment [4]; above 100 µM in experiment [5]; above 100 µM in [6]. Besides, the TGI in experiment [7], in experiment [8] and in [9] was above 100 µM each time.

As to `CCOC(=O)CCC(C(=O)OCC)n1nnc2cc(Nc3c(C)[n+]([O-])c4cc(Cl)ccc4[n+]3[O-])ccc21` (stereo unspecified), the TGI in experiment [1] is above 100 µM; in experiment [2], above 100 µM; in experiment [3], above 100 µM; in experiment [4], 71.9 µM; in experiment [5] it was above 100 µM; in experiment [6], above 100 µM. The TGI in experiment [7], in [8] and in [9] was above 100 µM in each case.

With `CC1CC[C@@]2(OC1)OC1C[C@H]3[C@@H]4CC=C5C[C@@H](OC6OC(CO)C(OC7OC(CO)C(O)C(O)C7O)C(O)C6OC6OC(C)C(O)C(O)C6O)CC[C@]5(C)[C@H]4CC[C@]3(C)C1[C@@H]2C` (stereo partly specified), the TGI in [1] came to 0.951 µM; in [2] it was 2.12 µM; in experiment [3] it was 4.4 µM; in experiment [4], 1.13 µM; in [5], 6.95 µM; in experiment [6] it was 1.02 µM. Besides, the values for the TGI in experiment [7], in [8] and in experiment [9] were 1.57 µM, 1.02 µM and 1.21 µM, respectively.

For `COc1cc2c(cc1OCCN1CCN(CCOc3cc4c(cc3OC)C(=O)N3CCC[C@H]3C=N4)CC1)N=C[C@@H]1CCCN1C2=O`, the TGI is above 100 µM in experiment [1]; 4.27 µM in experiment [2]; above 91.6 µM in experiment [3]; above 100 µM in experiment [4]; above 100 µM in experiment [5]; above 78.3 µM in experiment [6]. Also, the TGI in experiment [7], in experiment [8] and in experiment [9] was above 100 µM each time.

With `COc1cc(-c2cc(OC)c(OC)c3ccc(Br)cc23)c2cc(Br)ccc2c1OC`, the TGI in [1] is above 100 µM; in [2], 40.3 µM; in [3], 51.4 µM; in experiment [4], above 100 µM; in [5] it was above 100 µM; in experiment [6], 85.3 µM. Further, the TGI in [7] is 94.4 µM; in experiment [8], 92.1 µM; in experiment [9], 95.4 µM.

As to `O=c1[nH]c2ccccc2c(=O)n1/N=C\c1ccccc1O`, the TGI in [1], in experiment [2], in experiment [3], in [4], in experiment [5] and in experiment [6] was above 100 µM in each case. Further, the TGI in experiment [7], in [8] and in experiment [9] was above 100 µM in each case.

Take `Cc1c(-c2ccccc2)oc(=O)c2ccccc12`: the TGI came to 34.6 µM in [1]; 38 µM in [2]; 98.2 µM in experiment [3]; 60.9 µM in experiment [4]; 54.2 µM in experiment [5]; 46.6 µM in experiment [6]. Further, the TGI in experiment [7] is 43.1 µM; in [8], 30.7 µM; in experiment [9] it was 75.7 µM.

Take `CC(C)(C)c1cc(C(C)(C)C)c2sc(=O)oc2c1O`: the TGI in experiment [1] was found to be 33.2 µM; in experiment [2], 30.8 µM; in experiment [3], 24.8 µM; in experiment [4] it was 29.2 µM; in experiment [5] it was 25.3 µM; in experiment [6], 27.7 µM. In addition, the TGI in experiment [7] is 31.4 µM; in [8] it was 20.2 µM; in experiment [9], 19.8 µM.

With `CCOC(=O)/C=C(/OCC)[C@@H]1C(C(=O)c2ccc(Cl)cc2)[C@@H]1/C(=C\C(=O)OCC)OCC` (stereo partly specified), the TGI in experiment [1] was above 100 µM; in experiment [2], 17.9 µM; in experiment [3], above 69.1 µM; in [4] it was above 100 µM; in experiment [5], above 100 µM; in [6], above 100 µM. Moreover, the TGI in experiment [7], in experiment [8] and in [9] was above 100 µM throughout.

For the molecule `CCOC1OC(C)(C=C(C#N)C#N)CCC1C` (stereo unspecified), the TGI in [1] is above 93.9 µM; in experiment [2] it was above 100 µM; in experiment [3], above 100 µM; in experiment [4] it was above 100 µM; in experiment [5] it was above 71.2 µM; in [6] it was 36.8 µM. The values for the TGI in experiment [7], in experiment [8] and in experiment [9] were above 89.1 µM, above 100 µM and above 100 µM, respectively.

As to `Cc1cc(C)nc(NS(=O)(=O)c2ccc(NC(=O)c3ccc4nc5ccccc5c(Nc5ccc(S(=O)(=O)N=C(N)N)cc5)c4c3)cc2)n1`, the TGI in experiment [1], in experiment [2], in [3], in experiment [4], in experiment [5] and in experiment [6] was above 100 µM each time. For the same molecule, the TGI in experiment [7], in experiment [8] and in experiment [9] was above 100 µM throughout.
